Test results published in patent publication US5530126A, “Process for the preparation of substituted 6-(pyrazol-3yl)-1,4-benzoxazin-3-ones” (Monsanto Company, priority 1994, dated 1996).

Tests used:
Format in all cases: in vivo
Annual bluegrass [1] = test: Pre-emergence herbicide test; conditions: read-out: % plant inhibition (Anbg); for inhibition at 1120 g/ha: 1.12 kg/ha
Summary of the method: (§1)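 Seeds or perennial propagules sown on compacted topsoil in pans; known amount of active ingredient in organic solvent (e.g., acetone) or water applied directly to seed bed, then covered with untreated topsoil. Greenhouse, bottom-watered; % inhibition scored about 10-14 days (usually 11 days) after seeding.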

Barnyardgrass [2] = test: Pre-emergence herbicide test; conditions: Echinochloa crus-galli, read-out: % plant inhibition (Bygr); for inhibition at 1120 g/ha: 1.12 kg/ha
Summary of the method: as §1

Downy Brome [3] = test: Pre-emergence herbicide test; conditions: Bromus tectorum, read-out: % plant inhibition (Dobr); for inhibition at 1120 g/ha: 1.12 kg/ha
Summary of the method: as §1

Morningglory [4] = test: Pre-emergence herbicide test; conditions: Ipomoea, read-out: % plant inhibition (Mogl); for inhibition at 1120 g/ha: 1.12 kg/ha
Summary of the method: as §1

Velvetleaf [5] = test: Pre-emergence herbicide test; conditions: Abutilon theophrasti, read-out: % plant inhibition (Vele); for inhibition at 1120 g/ha: 1.12 kg/ha
Summary of the method: as §1

Wild buckwheat [6] = test: Pre-emergence herbicide test; conditions: Fallopia convolvulus, read-out: % plant inhibition (Wibw); for inhibition at 1120 g/ha: 1.12 kg/ha
Summary of the method: as §1

Yellow nutsedge [7] = test: Pre-emergence herbicide test; conditions: Cyperus, read-out: % plant inhibition (Yens); for inhibition at 1120 g/ha: 1.12 kg/ha
Summary of the method: as §1

Seedling johnsongrass [8] = test: Pre-emergence herbicide test; conditions: Sorghum halepense, read-out: % plant inhibition (Sejg); for inhibition at 1120 g/ha: 1.12 kg/ha
Summary of the method: as §1

Indian Mustard [9] = test: Pre-emergence herbicide test; conditions: Brassica juncea, read-out: % plant inhibition (Inmu); for inhibition at 1120 g/ha: 1.12 kg/ha
Summary of the method: as §1

Cocklebur [10] = test: Pre-emergence herbicide test; conditions: Xanthium strumarium, read-out: % plant inhibition (Cobu); for inhibition at 1120 g/ha: 1.12 kg/ha
Summary of the method: as §1

Annual bluegrass [11] = test: Post-emergence herbicide test; conditions: read-out: % plant inhibition (Anbg); for inhibition at 1120 g/ha: 1.12 kg/ha
Summary of the method: (§2)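 Scoring: percent inhibition relative to control, usually 11 days post-treatment, with a later look near 25 days in some instances. Plants had been grown in greenhouse pans for two to three weeks before atomizer spraying at 1870 L/Ha.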

Barnyardgrass [12] = test: Post-emergence herbicide test; conditions: Echinochloa crus-galli, read-out: % plant inhibition (Bygr); for inhibition at 1120 g/ha: 1.12 kg/ha
Summary of the method: as §2

Downy Brome [13] = test: Post-emergence herbicide test; conditions: Bromus tectorum, read-out: % plant inhibition (Dobr); for inhibition at 1120 g/ha: 1.12 kg/ha
Summary of the method: as §2

Morningglory [14] = test: Post-emergence herbicide test; conditions: Ipomoea, read-out: % plant inhibition (Mogl); for inhibition at 1120 g/ha: 1.12 kg/ha
Summary of the method: as §2

Velvetleaf [15] = test: Post-emergence herbicide test; conditions: Abutilon theophrasti, read-out: % plant inhibition (Vele); for inhibition at 1120 g/ha: 1.12 kg/ha
Summary of the method: as §2

Wild buckwheat [16] = test: Post-emergence herbicide test; conditions: Fallopia convolvulus, read-out: % plant inhibition (Wibw); for inhibition at 1120 g/ha: 1.12 kg/ha
Summary of the method: as §2

Yellow nutsedge [17] = test: Post-emergence herbicide test; conditions: Cyperus, read-out: % plant inhibition (Yens); for inhibition at 1120 g/ha: 1.12 kg/ha
Summary of the method: as §2

Seedling johnsongrass [18] = test: Post-emergence herbicide test; conditions: Sorghum halepense, read-out: % plant inhibition (Sejg); for inhibition at 1120 g/ha: 1.12 kg/ha
Summary of the method: as §2

Indian Mustard [19] = test: Post-emergence herbicide test; conditions: Brassica juncea, read-out: % plant inhibition (Inmu); for inhibition at 1120 g/ha: 1.12 kg/ha
Summary of the method: as §2

Cocklebur [20] = test: Post-emergence herbicide test; conditions: Xanthium strumarium, read-out: % plant inhibition (Cobu); for inhibition at 1120 g/ha: 1.12 kg/ha
Summary of the method: as §2

SMILES	inhibition at 1120 g/ha (Annual bluegrass [1])	inhibition at 1120 g/ha (Barnyardgrass [2])	inhibition at 1120 g/ha (Downy Brome [3])	inhibition at 1120 g/ha (Morningglory [4])	inhibition at 1120 g/ha (Velvetleaf [5])	inhibition at 1120 g/ha (Wild buckwheat [6])	inhibition at 1120 g/ha (Yellow nutsedge [7])	inhibition at 1120 g/ha (Seedling johnsongrass [8])	inhibition at 1120 g/ha (Indian Mustard [9])	inhibition at 1120 g/ha (Cocklebur [10])	inhibition at 1120 g/ha (Annual bluegrass [11])	inhibition at 1120 g/ha (Barnyardgrass [12])	inhibition at 1120 g/ha (Downy Brome [13])	inhibition at 1120 g/ha (Morningglory [14])	inhibition at 1120 g/ha (Velvetleaf [15])	inhibition at 1120 g/ha (Wild buckwheat [16])	inhibition at 1120 g/ha (Yellow nutsedge [17])	inhibition at 1120 g/ha (Seedling johnsongrass [18])	inhibition at 1120 g/ha (Indian Mustard [19])	inhibition at 1120 g/ha (Cocklebur [20])	further results
COCCOc1cc(-c2nn(C)c(C(F)(F)F)c2Cl)c(F)cc1Cl [Compound 270, 4-Chloro-3-(4-chloro-2-fluoro-5-(methoxyethoxy)phenyl)-1-methyl-5-(trifluoromethyl)-1H-pyrazole]	70%	90%	100%	100%	100%	100%	30%	70%	100%	60%	90%	100%	100%	100%	100%	100%	60%	90%	90%	90%	
CC(C)OC(=O)COc1cc(-c2nn(C)c(C(F)(F)Cl)c2Cl)c(F)cc1Cl [Compound 285]	0%	50%	0%	100%	100%	80%	0%	0%	10%	80%	30%	70%	40%	100%	100%	100%	40%	50%	100%	100%	
CCC(C)COC(=O)COc1cc(-c2nn(C)c(C(F)(F)F)c2Cl)c(F)cc1Cl (stereo not drawn) [Compound 287]	0%	0%	0%	70%	100%	80%	30%	0%	60%	90%	0%	70%	10%	100%	100%	90%	10%	80%	20%	100%	
CC(C)CCOC(=O)COc1cc(-c2nn(C)c(C(F)(F)F)c2Cl)c(F)cc1Cl [Compound 288]	0%	0%	0%	100%	100%	90%	0%	0%	20%	30%	0%	50%	0%	100%	100%	100%	10%	20%	90%	100%	
Cn1nc(-c2cc(OCC(=O)O)c(Cl)cc2F)c(Cl)c1C(F)(F)F [Compound 291, (2-Chloro-5-(4-chloro-1-methyl-5-(trifluoromethyl)-1H-pyrazol-3-yl)-4-fluorophenoxy)-acetic acid]	30%	20%	20%	100%	100%	100%	30%	40%	40%	100%	0%	20%	20%	100%	100%	90%	30%	30%	40%	100%	
C#CCOc1cc(-c2nn(C)c(C(F)(F)Cl)c2Cl)c(F)cc1Cl [Compound 303]																					inhibition at 11210 g/ha (Annual bluegrass [1]; 11.21 kg/ha): 100%; inhibition at 11210 g/ha (Barnyardgrass [2]; 11.21 kg/ha): 100%; inhibition at 11210 g/ha (Downy Brome [3]; 11.21 kg/ha): 100%; inhibition at 11210 g/ha (Morningglory [4]; 11.21 kg/ha): 100%; inhibition at 11210 g/ha (Velvetleaf [5]; 11.21 kg/ha): 100%; inhibition at 11210 g/ha (Wild buckwheat [6]; 11.21 kg/ha): 100%; inhibition at 11210 g/ha (Yellow nutsedge [7]; 11.21 kg/ha): 0%; inhibition at 11210 g/ha (Seedling johnsongrass [8]; 11.21 kg/ha): 100%; inhibition at 11210 g/ha (Indian Mustard [9]; 11.21 kg/ha): 100%; inhibition at 11210 g/ha (Cocklebur [10]; 11.21 kg/ha): 100%; inhibition at 11210 g/ha (Annual bluegrass [11]; 11.21 kg/ha): 100%; inhibition at 11210 g/ha (Barnyardgrass [12]; 11.21 kg/ha): 100%; inhibition at 11210 g/ha (Downy Brome [13]; 11.21 kg/ha): 100%; inhibition at 11210 g/ha (Morningglory [14]; 11.21 kg/ha): 100%; inhibition at 11210 g/ha (Velvetleaf [15]; 11.21 kg/ha): 100%; inhibition at 11210 g/ha (Wild buckwheat [16]; 11.21 kg/ha): 100%; inhibition at 11210 g/ha (Yellow nutsedge [17]; 11.21 kg/ha): 70%; inhibition at 11210 g/ha (Seedling johnsongrass [18]; 11.21 kg/ha): 100%; inhibition at 11210 g/ha (Indian Mustard [19]; 11.21 kg/ha): 100%; inhibition at 11210 g/ha (Cocklebur [20]; 11.21 kg/ha): 100%
COCOc1cc(-c2nn(C)c(C(F)(F)F)c2Cl)c(F)cc1Cl [Compound 308, 4-Chloro-3-(4-chloro-2-fluoro-5-(methoxy-methoxy)phenyl)-1-methyl-5-(trifluoromethyl)-1H-pyrazole]	100%	100%	100%	100%	100%	100%	40%	100%	100%	80%	100%	100%	100%	90%	100%	100%	20%	100%	90%	90%	
Cn1nc(-c2cc(O)c(Cl)cc2F)c(Cl)c1C(F)(F)Cl [Compound 329]	0%	0%	0%	70%	100%	100%	0%	0%	90%	0%	90%	90%	90%	100%	100%	100%	0%	90%	100%	90%	
Cn1nc(-c2cc(/C=C/C(=O)O)c(Cl)cc2F)c(Cl)c1C(F)(F)F [Compound 351]	0%	0%	0%	80%	100%	100%	0%	0%	100%	80%	30%	70%	40%	100%	100%	100%	30%	60%	100%	100%	
